Consider 15 compounds from patent publication US20220071971A1, “MACROCYCLIC COMPOUNDS AND THEIR USE IN THE TREATMENT OF DISEASE” (NOVARTIS AG, priority 2018, published 2022).

The target in test [1] is T1, delF508-CFTR (Homo sapiens, UniProt P13569, DEL508-508).
T1 construct: expressed in transfected cells
In words: Measurement of delF508-CFTR-HRP surface expression in CFBE41o- cells. The format is cell-based. The conditions noted are these: for EC50: HRP-tagged delF508-CFTR surface expression, CFBE41o- cells, 24 h with compound, 10-point curve, highest concentration 10 μM; for Emax: CFBE41o-, read-out: DelF508-CFTR-HRP Amax %. In outline: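 CFBE41o- cells stably expressing delF508-CFTR with HRP in the fourth extracellular loop, induced 48 h with 500 ng/mL doxycycline, then exposed to compound (10-point, 3-fold, top 10 μM, ≤0.5% DMSO) for 24 h at 37° C. Surface HRP read by luminescence with cell-impermeant substrate; EC50 by logistic fit, triplicates, efficacy relative to reference corrector.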

For test [2], the target named is T1, delF508-CFTR. In words: Measurement of delF508-CFTR functional activity in primary human bronchial epithelial cells (HBECs) using MTECC-24 assay. In kind it is cell-based. To be noted: for EC50: primary human delF508-CFTR bronchial epithelial cells, 24 hr compound treatment, equivalent short circuit current, forskolin and potentiator, mean of at least two replicates, read-out: MTECC24 CFHBEC EC50; for MTECC24 CFHBEC Amax %: test compound (24 h) with potentiator (S)-3-amino-6-methoxy-N-(3,3,3-trifluoro-2-hydroxy-2-methylpropyl)-5-(trifluoromethyl)picolinamide, relative to 2 μM 3-(6-(1-(2,2-difluorobenzo[d][1,3]dioxol-5-yl)cyclopropane-1-carboxamido)-3-methylpyridin-2-yl)benzoic acid plus 0.5 μM N-(2,4-di-tert-butyl-5-hydroxyphenyl)-4-oxo-1,4-dihydroquinoline-3-carboxamide. The text has this:
Measurement of delF508-CFTR Functional Activity in Primary Human Bronchial Epithelial Cells (HBECs) Using Multi-Transepithelial Clamp Circuit (MTECC-24) Assay
This assay measures the functional activity of the CFTR channel (Chloride ion transport) in patient derived primary human bronchial epithilial cells with forskolin activation and in the presence of the CFTR corrector/potentiator combination.
Primary human delF508-CFTR bronchial epithelial cells were and cultured according to previously established methods (Neuberger, T. et, al., Methods in Molecular Biology, 2011, 741, pp 39-54). Briefly, before thawing the HBEC cells, T25 flasks were coated with 2 mL of 3T3 conditioned media (MTI-GlobalStem, Cat #GSM9100) for at least 12 hours in 37° C. CO2 incubator. 1.7×10^5 cells were seeded into one T25 flask with 5 mL of HBE growth media (BEBM with supplements (Lonza, Cat #CC-3170) with 10 nM of retinoic acid (Sigma, Cat #R-2625) and 1% of PSA (Hyclone, Cat #SV30079.01). Media was changed every day till the cells were 100% confluent. Cells were seeded into T75 flasks (pre-coated with 5 mL of 3T3 conditioned media for more than 12 hrs) at 4.95×10^5 cells/T75 flask in 15 mL of HBE growth media. Flasks were fed everyday with fresh HBE growth media until the cells were confluent. 24-well transwell plates (Corning, Cat #3378) were coated with 3T3 conditioned media (70 μL on top of the filter, 350 μL to the bottom of the well) overnight in the 37° C. CO2 incubator. Cells were seeded in the pre-coated 24-well transwell plates at 1.7×10^5 cell/well with 700 μL of growth media at the bottom of the well and 200 μL of growth media at the top of the filter. After 24 hrs, cells were switched into HBE differentiation media ((DMEM/F12 (Gibco, Cat #11330-032) supplement with 2% Ultroser G (Pall, Cat #15950-017), 2% of Fetal Clone II (Hyclone, Cat #SH30066.03), 0.25% Bovine Brain Extract (Lonza, Cat #CC-4098), 1% of PSA, 2.5 μg/mL of Insulin (Sigma, Cat #19278), 20 nM of Hydrocortisone (Sigma, Cat #H0888), 500 nM of Triiodothyronine (Sigma, Cat #T6397), 2.5 μg/mL of Transferrin (Sigma, Cat #T8158), 250 nM of Ethanolamine (Sigma, Cat #E0135), 1.5 μM of Epinephrine (Sigma, Cat #E4250), 250 nM of Phosphoethanolamine (Sigma, Cat #P0503), 10 nM of retinoic acid)) with 200 μL on top of the filter (apical side) and 700 μL at the bottom of the well (basolateral side). Cells were fed every other day with the differentiation media. After 4 days, cells were exposed to air/liquid interface. Then cells were fed every other day for 4 weeks before fully differentiated.
Cells were washed with 3 mM DTT in PBS at 70 ul/well for 30 min at 37° C. 6 days before the assay. 3 days before the assay, cells were washed again with PBS at 70 ul/well for 30 min at 37° C. Then cells were treated with compound for 24 hrs before the assay.
Following 24 hr treatment with compound, cells were transferred into plates containing 750 ul of assay media on basolateral side and 250 ul on apical side (Assay medium: F-12 Coon's modified, 20 mM HEPES pH7.4 with TRIS Base, No FCS or bicarbonate). The plates wee then transferred to the heated plate compartments (basolateral buffer temperature ˜36.5° C. on the heating block) of the TECC24 system for 45 mins prior to measurements.
Modulators were added sequentially as follows while the TECC24 instrument recorded the equivalent short circuit current (Ieq):
Prior to dilution into assay medium the stocks were as follows: Benzamil stock: 10 mM in DMSO
Forskolin Stock: 50 mM in DMSO
N-(2,4-di-tert-butyl-5-hydroxyphenyl)-1,4-dihydro-4-oxoquinoline-3-carboxamide: 50 mM in DMSO (S)-3-amino-6-methoxy-N-(3,3,3-trifluoro-2-hydroxy-2-methylpropyl)-5-(trifluoromethyl)picolinamide: 50 mM stock 100% DMSO Bumetanide stock: 20 mM in EtOH
The data was normalized using the median signal from wells treated with 0.1% DMSO as a baseline. Curve fitting and EC50 calculations were performed using the following equation: […]

The mark [3] stands for this setting: efficacy relative to reference compound 3-(6-(1-(2,2-difluorobenzo[d][1,3]dioxol-5-yl)cyclopropane-1-carboxamido)-3-methylpyridin-2-yl)benzoic acid.

T1 sequence (P13569 with tags, fused parts or gaps DEL508-508): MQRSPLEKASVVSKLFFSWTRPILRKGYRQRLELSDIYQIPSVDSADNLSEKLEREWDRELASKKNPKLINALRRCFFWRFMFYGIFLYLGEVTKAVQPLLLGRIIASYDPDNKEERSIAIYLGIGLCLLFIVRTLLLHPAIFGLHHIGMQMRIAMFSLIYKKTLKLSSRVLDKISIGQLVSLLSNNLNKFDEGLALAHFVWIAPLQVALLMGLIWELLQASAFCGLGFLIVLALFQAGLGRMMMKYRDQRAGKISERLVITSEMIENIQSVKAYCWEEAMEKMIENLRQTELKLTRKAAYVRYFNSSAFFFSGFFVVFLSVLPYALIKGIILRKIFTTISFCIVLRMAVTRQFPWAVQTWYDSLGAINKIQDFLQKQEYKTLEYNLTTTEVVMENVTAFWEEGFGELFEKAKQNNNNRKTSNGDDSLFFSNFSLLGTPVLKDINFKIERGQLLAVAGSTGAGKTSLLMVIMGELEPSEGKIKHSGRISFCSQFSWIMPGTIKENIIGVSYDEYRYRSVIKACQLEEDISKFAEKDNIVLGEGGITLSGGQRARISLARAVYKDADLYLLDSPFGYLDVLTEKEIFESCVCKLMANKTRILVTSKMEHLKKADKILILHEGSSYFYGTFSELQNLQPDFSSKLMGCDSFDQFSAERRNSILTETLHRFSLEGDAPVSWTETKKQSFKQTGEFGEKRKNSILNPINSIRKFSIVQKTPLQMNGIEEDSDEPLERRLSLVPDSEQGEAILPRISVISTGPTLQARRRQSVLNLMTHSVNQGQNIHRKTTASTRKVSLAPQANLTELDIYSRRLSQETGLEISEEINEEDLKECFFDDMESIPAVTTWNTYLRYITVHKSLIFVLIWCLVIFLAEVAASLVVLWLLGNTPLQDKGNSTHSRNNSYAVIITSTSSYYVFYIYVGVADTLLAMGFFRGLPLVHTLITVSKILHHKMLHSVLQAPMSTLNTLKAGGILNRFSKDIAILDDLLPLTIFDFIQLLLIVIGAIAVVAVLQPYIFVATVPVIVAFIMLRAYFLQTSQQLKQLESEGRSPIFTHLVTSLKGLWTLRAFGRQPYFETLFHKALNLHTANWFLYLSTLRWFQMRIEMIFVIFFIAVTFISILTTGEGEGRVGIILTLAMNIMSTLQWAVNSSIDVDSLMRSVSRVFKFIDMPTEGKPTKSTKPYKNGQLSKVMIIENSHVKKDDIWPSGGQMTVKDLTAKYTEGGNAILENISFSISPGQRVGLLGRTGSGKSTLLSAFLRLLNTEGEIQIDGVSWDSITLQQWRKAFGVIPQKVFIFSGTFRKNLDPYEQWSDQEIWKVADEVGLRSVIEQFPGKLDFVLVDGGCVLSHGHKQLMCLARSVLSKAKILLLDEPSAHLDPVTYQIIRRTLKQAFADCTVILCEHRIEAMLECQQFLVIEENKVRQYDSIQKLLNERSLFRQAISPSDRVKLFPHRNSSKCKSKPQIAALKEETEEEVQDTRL

Regarding `CC(C)(CN1CCCCCc2ccccc2-c2nc(ccc2C(F)(F)F)NS(=O)(=O)c2cccc1n2)C(=O)O` [Compound 100, 3-(4,4-dioxido-2^3-(trifluoromethyl)-4-thia-3,6-diaza-2,5(2,6)-dipyridina-1(1,2)-benzenacycloundecaphane-6-yl)-2,2-dimethylpropanoic acid], at delF508-CFTR [1], the EC50 – broadly, the concentration giving half of the maximal effect – was 351 nM. At delF508-CFTR [2], the EC50 worked out at 4.3 nM and the “MTECC24 CFHBEC Amax %” value is 175.8%.

With `O=S1(=O)Nc2ccc(C(F)(F)F)c(n2)-c2ccccc2CCCCCN(CCO)c2cccc1n2` [Compound 117, 6-(2-hydroxyethyl)-2^3-(trifluoromethyl)-4-thia-3,6-diaza-2,5(2,6)-dipyridina-1(1,2)-benzenacycloundecaphane 4,4-dioxide], the EC50 at delF508-CFTR [1] was found to be 391 nM. Moreover, at delF508-CFTR [2], the EC50 was found to be 1 nM and the “MTECC24 CFHBEC Amax %” value amounted to 213.1%.

In the case of `O=C(O)CCN1CCCCCc2ccccc2-c2nc(ccc2C(F)(F)F)NS(=O)(=O)c2cccc1n2` [Compound 92, 3-(4,4-dioxido-2^3-(trifluoromethyl)-4-thia-3,6-diaza-2,5(2,6)-dipyridina-1(1,2)-benzenacycloundecaphane-6-yl)propanoic acid], the Emax at delF508-CFTR [1] (setting [3]) worked out at 982%. The EC50 on delF508-CFTR [1] worked out at 694 nM. At delF508-CFTR [2], the EC50 turned out to be 6.9 nM and the “MTECC24 CFHBEC Amax %” value turned out to be 90.0%.

For the compound `CC(C)(CN1CCCCCCc2ccccc2-c2nc(ccc2C(F)(F)F)NS(=O)(=O)c2cccc1n2)C(=O)O` [Compound 99, 3-(4,4-dioxido-2^3-(trifluoromethyl)-4-thia-3,6-diaza-2,5(2,6)-dipyridina-1(1,2)-benzenacyclododecaphane-6-yl)-2,2-dimethylpropanoic acid], the EC50 at delF508-CFTR [1] is 230 nM. Also, at delF508-CFTR [2], the EC50 was determined as 0.8 nM and the “MTECC24 CFHBEC Amax %” value was 279.3%.

Turning to “3-(4,4-dioxido-2^3-(trifluoromethyl)-9-oxa-4-thia-3,6-diaza-2,5(2,6)-dipyridina-1(1,2)-benzenacyclododecaphane-6-yl)propanoic acid [Compound 98]”, the EC50 on delF508-CFTR [1] turned out to be 2030 nM; at delF508-CFTR [2], 100 nM. For the same compound, the “DelF508-CFTR-HRP Amax %” value on delF508-CFTR [1] (setting [3]) turned out to be 719.0%. Further, the “MTECC24 CFHBEC Amax %” value at delF508-CFTR [2] turned out to be 69.2%.

Consider `CC(C)(CO)CN1CCCCCCc2ccccc2-c2nc(ccc2C(F)(F)F)NS(=O)(=O)c2cccc1n2` [Compound 28, 6-(3-hydroxy-2,2-dimethylpropyl)-2^3-(trifluoromethyl)-4-thia-3,6-diaza-2,5(2,6)-dipyridina-1(1,2)-benzenacyclododecaphane 4,4-dioxide], for which, on delF508-CFTR [1], the EC50 was 66 nM. In addition, on delF508-CFTR [2], the EC50 was found to be 0.9 nM and the “MTECC24 CFHBEC Amax %” value is 171.1%.

With `CC(C)(CO)CN1CCCCCc2ccccc2-c2nc(ccc2C(F)(F)F)NS(=O)(=O)c2cccc1n2` [Compound 27, 6-(3-hydroxy-2,2-dimethylpropyl)-2^3-(trifluoromethyl)-4-thia-3,6-diaza-2,5(2,6)-dipyridina-1(1,2)-benzenacycloundecaphane 4,4-dioxide], the Emax on delF508-CFTR [1] (setting [3]) was found to be 829%. Moreover, the EC50 on delF508-CFTR [1] stood at 177 nM. Besides, at delF508-CFTR [2], the EC50 came out at 3.1 nM and the “MTECC24 CFHBEC Amax %” value is on record as 132.0%.

As for `CC(C)(CN1CCCCCc2ccc(F)cc2-c2nc(ccc2C(F)(F)F)NS(=O)(=O)c2cccc1n2)C(=O)O` [Compound 96, 3-(1^5-fluoro-4,4-dioxido-2^3-(trifluoromethyl)-4-thia-3,6-diaza-2,5(2,6)-dipyridina-1(1,2)-benzenacycloundecaphane-6-yl)-2,2-dimethylpropanoic acid], the Emax at delF508-CFTR [1] (setting [3]) was determined as 792%. For the same compound, the EC50 at delF508-CFTR [1] was found to be 431 nM.

Take `O=S1(=O)Nc2ccc(C(F)(F)F)c(n2)-c2ccccc2CCCCCCCCN(CCCO)c2cccc1n2` [Compound 43, 6-(3-hydroxypropyl)-2^3-(trifluoromethyl)-4-thia-3,6-diaza-2,5(2,6)-dipyridina-1(1,2)-benzenacyclotetradecaphane 4,4-dioxide]: at delF508-CFTR [1], the EC50 turned out to be 255 nM.

On to `O=C(O)CN1CCCCCCc2ccccc2-c2nc(ccc2C(F)(F)F)NS(=O)(=O)c2cccc1n2` [Compound 120, 2-(4,4-dioxido-2^3-(trifluoromethyl)-4-thia-3,6-diaza-2,5(2,6)-dipyridina-1(1,2)-benzenacyclododecaphane-6-yl)acetic acid], for which, on delF508-CFTR [1] (setting [3]), the Emax turned out to be 949%. In addition, the EC50 at delF508-CFTR [1] amounted to 1410 nM.

Consider `NCCN1CCCCCc2ccccc2-c2nc(ccc2C(F)(F)F)NS(=O)(=O)c2cccc1n2` [Compound 132, 6-(2-aminoethyl)-2^3-(trifluoromethyl)-4-thia-3,6-diaza-2,5(2,6)-dipyridina-1(1,2)-benzenacycloundecaphane 4,4-dioxide], for which the Emax at delF508-CFTR [1] (setting [3]) was found to be 259%. Also, at delF508-CFTR [1], the EC50 came to 2670 nM.

Consider `O=C(O)CCN1CCCCCCCCc2ccccc2-c2nc(ccc2C(F)(F)F)NS(=O)(=O)c2cccc1n2` [Compound 69, 3-(4,4-dioxido-2^3-(trifluoromethyl)-4-thia-3,6-diaza-2,5(2,6)-dipyridina-1(1,2)-benzenacyclotetradecaphane-6-yl)propanoic acid], for which, on delF508-CFTR [1], the concentration giving a half-maximal response (EC50) amounted to 351 nM.

`O=C(O)CCC1CCCCc2ccccc2-c2nc(ccc2C(F)(F)F)NS(=O)(=O)c2cccc(n2)O1` (stereo not shown) [Compound 110, 3-(4,4-dioxido-2^3-(trifluoromethyl)-6-oxa-4-thia-3-aza-2,5(2,6)-dipyridina-1(1,2)-benzenacycloundecaphane-7-yl)propanoic acid]: the Emax at delF508-CFTR [1] (setting [3]) was found to be 170%. At delF508-CFTR [1], the half-maximal effective concentration (EC50) was 477 nM.

Regarding `O=S1(=O)Nc2ccc(C(F)(F)F)c(n2)-c2ccccc2CCCCCN(CCN2C[C@H](O)[C@@H](O)C2)c2cccc1n2` [Compound 123, 6-(2-((3S,4S)-3,4-dihydroxypyrrolidin-1-yl)ethyl)-2^3-(trifluoromethyl)-4-thia-3,6-diaza-2,5(2,6)-dipyridina-1(1,2)-benzenacycloundecaphane 4,4-dioxide], on delF508-CFTR [1] (setting [3]), the Emax is 308%. The EC50 at delF508-CFTR [1] was determined as 1840 nM.

On to `O=C(O)CCCN1CCCCOc2ccc(F)cc2-c2nc(ccc2C(F)(F)F)NS(=O)(=O)c2cccc1n2` [Compound 63, 4-(1^5-fluoro-4,4-dioxido-2^3-(trifluoromethyl)-11-oxa-4-thia-3,6-diaza-2,5(2,6)-dipyridina-1(1,2)-benzenacycloundecaphane-6-yl)butanoic acid], for which the EC50 at delF508-CFTR [1] came to 1800 nM.
